From PubChem BioAssay AID1918931 (Molecular Pharmacology Branch, DTP, NCI, 2023)
pIC50: −log10 of the molar value.

System: 138582-337-R-J1-PDC complex spheroid viability
Assay: Anticancer human tumor 138582-337-R-J1-PDC patient-derived Merkel cell tumor cell line growth inhibition
Conditions: for pIC50: curve of first compound; for viability, T/C: stronger effect = lower value
Source text: Multicellular complex tumor spheroid response to LSD1 Inhibitor Iadademstat in combination with a variety of drugs and investigational agents in selected tumor cell lines
The current study was undertaken to assess response to LSD1 inhibitors in combination with standard-of-care drugs and investigational agents in solid tumor complex spheroid models as well as in the K-562 leukemia. Complex spheroids include a stromal component modeled by human endothelial cells (HUVEC) and fibroblasts modeled by human mesenchymal stem cells (MSCs). The concentration ranges selected for each drug and investigational agent were based upon clinically achievable concentrations if the clinical Cmax of the agent was known.
Compounds. The drugs and investigational agents used in this study are listed on Table 1. All of the agents used, including staurosporine (NSC755774) and gemcitabine (NSC613327), were obtained from the Developmental Therapeutics Program, NCI. FDA-approved anticancer drugs are available from the NCI at http://dtp.nci.nih.gov/branches/dscb/oncology_drugset_explanation.html. Drugs and investigational agents were >95% pure by proton nuclear magnetic resonance (NMR) and liquid chromatography/mass spectrometry (LC/MS). Stock solutions were prepared at 400x in DMSO, stored at -70 degrees C, and diluted in fresh medium prior to their use. The final concentration of DMSO in cell culture wells never exceeded 0.25% (v/v). The FDA-approved anticancer drug set is available from the Developmental Therapeutics Program at https://dtp.cancer.gov/organization/dscb/obtaining/available_plates.htm. All drugs and investigational agents were tested over a range starting from a high concentration at or near the clinical Cmax and decreasing in half-log increments. If the clinical Cmax for an agent had not been determined, the highest concentration tested was 10 microM.
Cell Lines. The patient-derived cancer cell (PDC) lines: 292921-168-R-J2-PDC, K24384-001-R-PDC, and 521955-158-R2-J5-PDC pancreatic carcinomas, 556581-035-R-J1 ovarian carcinoma, 324938-238-R-J1-PDC, 855422-203-R-J1-PDC and 883617-216-R-J1-PDC urothelial bladder carcinomas, 743489-274-T-PDC renal cell carcinoma, 138582-R-J1 Merkel cell tumor, K60290-347-R-J1 and K57222-313-R-J1-PDC glioblastomas, 653999-131-R-J2-PDC, LG0703-F948-PDC, and 349418-098-R-PDC non-small cell lung carcinomas, 885512-296-R-J2-PDC, 171881-019-R-J1-PDC breast carcinomas and 186277-243-T-J2-PDC and 233499-124-R-J2-PDC colon carcinomas were obtained from the NCI Patient-Derived Models Repository (PDMR, https://pdmr.cancer.gov). The established cell lines NCI/ADR-RES (RRID:CVCL_14520 and OVCAR-5 (RRID:CVCL_1628) ovarian carcinomas, 786-O (RRID:CVCL_1051) and A498 (RRID:CVCL_A498) renal cell carcinoma, NCI-H211 (ATCC, cat. CRL-5824; RRID:CVCL_1529), NCI-H196 (ATCC, cat. CRL-5823, RRID:CVCL_1509), SW 1271 (ATCC, cat. CRL-2177, RRID:CVCL_1716) and NCI-H1876 (ATCC, cat. CRL-5902, RRID:CVCL_1503) small cell lung carcinomas, MDA-MB-231 (RRID:CVCL_0062) and MDA-MB-468 (RRID:CVCL_0419)breast carcinomas (10-12). Pooled donor human umbilical vein endothelial cells (HUVEC, Lonza, cat. CC-2519) and human mesenchymal stem cells (hMSC, Lonza, cat. PT-2501) were purchased from Lonza (Walkersville, MD).
Cell Culture. All cells were maintained in an incubator at 37 degrees C and 5% CO2 with 95% humidity. The PDC lines were cultured according to standard operating procedures established by the NCI PDMR (https://pdmr.cancer.gov). Briefly all PDCs were thawed and cultured in Matrigel-coated flasks prepared with a working solution of 1X Ham's F-12 nutrient mix, without supplementation (Invitrogen, Waltham, MA, cat. 11765054), 100 U/mL penicillin-streptomycin (Invitrogen, cat. 15140122), and 2.5% Matrigel (Corning Inc., Corning, NY, cat. 354248) for the first three passages. […]
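Further: spheroids exposed to agents for 7 days.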
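Wherever viability, T/C is given: 100% = DMSO vehicle control viability.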

Compound `Nc1ccccc1NC(=O)c1ccc(CNC(=O)OCc2cccnc2)cc1` + NC1CC1c1ccc(-c2cccc(O)c2)cc1 has a pIC50 (second compound 0.1 µM) of 6.49, a pIC50 (second compound 0.316 µM) of 6.45 and a pIC50 (second compound 1 µM) of 6.41. It also gave a pIC50 (second compound 3.16 µM) of 6.51, a pIC50 (second compound 10 µM) of 6.58 and a viability, T/C (second compound 0.1 µM, first compound 0.00949 µM) of 86.8%. It also gave a viability, T/C (second compound 0.1 µM, first compound 0.03 µM) of 72.7%, a viability, T/C (second compound 0.1 µM, first compound 0.0949 µM) of 78.6% and a viability, T/C (second compound 0.1 µM, first compound 0.3 µM) of 53%. It also gave a viability, T/C (second compound 0.1 µM, first compound 0.949 µM) of 7.55%, a viability, T/C (second compound 0.1 µM, first compound 3 µM) of 0.52% and a viability, T/C (second compound 0.316 µM, first compound 0.00949 µM) of 71.1%. For the same compound, the viability, T/C (second compound 0.316 µM, first compound 0.03 µM) was 76.6%, the viability, T/C (second compound 0.316 µM, first compound 0.0949 µM) was 76.6% and the viability, T/C (second compound 0.316 µM, first compound 0.3 µM) was 57.4%. It also gave a viability, T/C (second compound 0.316 µM, first compound 0.949 µM) of 6.5%, a viability, T/C (second compound 0.316 µM, first compound 3 µM) of 0.75% and a viability, T/C (second compound 1 µM, first compound 0.00949 µM) of 72.1%. For the same compound, the viability, T/C (second compound 1 µM, first compound 0.03 µM) was 53%, the viability, T/C (second compound 1 µM, first compound 0.0949 µM) was 79.3% and the viability, T/C (second compound 1 µM, first compound 0.3 µM) was 62.6%. For the same compound, the viability, T/C (second compound 1 µM, first compound 0.949 µM) was 6.82%, the viability, T/C (second compound 1 µM, first compound 3 µM) was 0.31% and the viability, T/C (second compound 3.16 µM, first compound 0.00949 µM) was 74.5%. For the same compound, the viability, T/C (second compound 3.16 µM, first compound 0.03 µM) was 77%, the viability, T/C (second compound 3.16 µM, first compound 0.0949 µM) was 80.9% and the viability, T/C (second compound 3.16 µM, first compound 0.3 µM) was 50.8%. It also gave a viability, T/C (second compound 3.16 µM, first compound 0.949 µM) of 6.44%, a viability, T/C (second compound 3.16 µM, first compound 3 µM) of 0.64% and a viability, T/C (second compound 10 µM, first compound 0.00949 µM) of 79.8%. For the same compound, the viability, T/C (second compound 10 µM, first compound 0.03 µM) was 70.2%, the viability, T/C (second compound 10 µM, first compound 0.0949 µM) was 61.5% and the viability, T/C (second compound 10 µM, first compound 0.3 µM) was 50.1%. The viability, T/C (second compound 10 µM, first compound 0.949 µM) was 4.95% and the viability, T/C (second compound 10 µM, first compound 3 µM) was 0.46%.

With `O=C(c1cc(Cc2n[nH]c(=O)c3ccccc23)ccc1F)N1CCN(C(=O)C2CC2)CC1` + NC1CC1c1ccc(-c2cccc(O)c2)cc1 the pIC50 (second compound 0.1 µM) was 5.04, the pIC50 (second compound 0.316 µM) was 5.29 and the pIC50 (second compound 1 µM) was under 5.00. For the same compound, the pIC50 (second compound 3.16 µM) was under 5.00, the pIC50 (second compound 10 µM) was under 5.00 and the viability, T/C (second compound 0.1 µM, first compound 0.0316 µM) was 72%. The viability, T/C (second compound 0.1 µM, first compound 0.1 µM) was 74.9%, the viability, T/C (second compound 0.1 µM, first compound 0.316 µM) was 68.4% and the viability, T/C (second compound 0.1 µM, first compound 1 µM) was 68.5%. It also gave a viability, T/C (second compound 0.1 µM, first compound 3.16 µM) of 58.6%, a viability, T/C (second compound 0.1 µM, first compound 10 µM) of 49.5% and a viability, T/C (second compound 0.316 µM, first compound 0.0316 µM) of 68.6%. It also gave a viability, T/C (second compound 0.316 µM, first compound 0.1 µM) of 73.7%, a viability, T/C (second compound 0.316 µM, first compound 0.316 µM) of 66.2% and a viability, T/C (second compound 0.316 µM, first compound 1 µM) of 57.6%. For the same compound, the viability, T/C (second compound 0.316 µM, first compound 3.16 µM) was 53.6%, the viability, T/C (second compound 0.316 µM, first compound 10 µM) was 45.7% and the viability, T/C (second compound 1 µM, first compound 0.0316 µM) was 76.5%. For the same compound, the viability, T/C (second compound 1 µM, first compound 0.1 µM) was 77.3%, the viability, T/C (second compound 1 µM, first compound 0.316 µM) was 70.9% and the viability, T/C (second compound 1 µM, first compound 1 µM) was 64.8%. For the same compound, the viability, T/C (second compound 1 µM, first compound 3.16 µM) was 62.4%, the viability, T/C (second compound 1 µM, first compound 10 µM) was 57.4% and the viability, T/C (second compound 3.16 µM, first compound 0.0316 µM) was 78.8%. It also gave a viability, T/C (second compound 3.16 µM, first compound 0.1 µM) of 79.8%, a viability, T/C (second compound 3.16 µM, first compound 0.316 µM) of 82.4% and a viability, T/C (second compound 3.16 µM, first compound 1 µM) of 70.7%. The viability, T/C (second compound 3.16 µM, first compound 3.16 µM) was 80%, the viability, T/C (second compound 3.16 µM, first compound 10 µM) was 60.6% and the viability, T/C (second compound 10 µM, first compound 0.0316 µM) was 81.5%. The viability, T/C (second compound 10 µM, first compound 0.1 µM) was 81.1%, the viability, T/C (second compound 10 µM, first compound 0.316 µM) was 80.3% and the viability, T/C (second compound 10 µM, first compound 1 µM) was 93.3%. The viability, T/C (second compound 10 µM, first compound 3.16 µM) was 71.3% and the viability, T/C (second compound 10 µM, first compound 10 µM) was 87.1%.
